Source: patent US20230078764A1 (Yumanity Therapeutics, Inc., priority 2019, published 2023)
pIC50: −log10 of the molar value. Like-named read-outs stand apart in the source and are kept apart here.

Key:
human SCD1 = target: T1, human SCD1 (Homo sapiens, UniProt O00767); experiment: Growth inhibition of yeast strain expressing human SCD1 as sole desaturase (OLE1 deleted), OD600 readout; type: cell-based
T1 construct: expressed in transfected cells; host or cells: yeast strain with OLE1 deleted, plasmid-borne human SCD1 (selected in SD-Ura)
T1 sequence (O00767 1-359): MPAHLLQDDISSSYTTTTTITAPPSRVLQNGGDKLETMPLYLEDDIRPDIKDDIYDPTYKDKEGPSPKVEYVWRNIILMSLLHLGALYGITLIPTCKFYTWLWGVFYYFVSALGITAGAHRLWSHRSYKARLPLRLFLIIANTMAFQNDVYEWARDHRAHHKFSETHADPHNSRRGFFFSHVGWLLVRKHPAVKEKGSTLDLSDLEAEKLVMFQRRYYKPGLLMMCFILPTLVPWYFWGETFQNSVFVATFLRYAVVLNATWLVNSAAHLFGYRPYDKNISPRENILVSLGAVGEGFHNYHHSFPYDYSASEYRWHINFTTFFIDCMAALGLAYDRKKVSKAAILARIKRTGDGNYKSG

human SCD5 = target: T2, human SCD5 (Homo sapiens, UniProt Q86SK9); experiment: Growth inhibition of yeast strain expressing human SCD5 as sole desaturase (OLE1 deleted), OD600 readout; type: cell-based
T2 construct: expressed in transfected cells; host or cells: yeast strain with OLE1 deleted, plasmid-borne human SCD5 (selected in SD-Ura)
T2 sequence (Q86SK9 1-330): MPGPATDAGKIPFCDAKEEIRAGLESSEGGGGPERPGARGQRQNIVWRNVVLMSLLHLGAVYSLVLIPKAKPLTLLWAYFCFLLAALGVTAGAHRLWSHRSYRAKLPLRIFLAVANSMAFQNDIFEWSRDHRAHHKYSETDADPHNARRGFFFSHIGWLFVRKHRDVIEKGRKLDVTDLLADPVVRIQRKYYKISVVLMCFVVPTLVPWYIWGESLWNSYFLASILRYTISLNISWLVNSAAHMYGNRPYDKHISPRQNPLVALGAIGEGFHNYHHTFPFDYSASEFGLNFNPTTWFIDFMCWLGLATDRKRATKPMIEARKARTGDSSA

[1] = yeast strain expressing human SCD1 as sole desaturase, growth (OD600) after 40 h at 30° C., read-out: SCD1 IC50
[2] = yeast strain expressing human SCD5 as sole desaturase, growth (OD600) after 40 h at 30° C., read-out: SCD5 IC50

Row | pIC50 (human SCD1; [1]) | pIC50 (human SCD5; [2]) | Structure (SMILES) | pIC50 (human SCD1; SCD1 IC50) | pIC50 (human SCD5; SCD5 IC50)
1 | < 4.35 | 6.35 | CN1N=C(C(=O)Nc2ccc(Cc3cccc(Cl)c3)cn2)CCC1=O [Example 15, N-(5-(3-chlorobenzyl)pyridin-2-yl)-1-methyl-6-oxo-1,4,5,6-tetrahydropyridazine-3-carboxamide] | – | –
2 | < 4.35 | < 4.35 | Cn1nc(C(=O)NCc2ccc(Cc3cccc(F)c3)cn2)ccc1=O [Compound 411] | – | –
3 | 6.16 | 6.89 | Cc1cnc(C(=O)Nc2ccc(Cc3cccc(F)c3)cn2)cn1 [Compound 252] | – | –
4 | < 4.35 | 5.09 | CN1N=C(C(=O)Nc2ccc(Oc3cccc(Cl)c3)cc2)CCC1=O [Compound 159, N-(4-(3-chlorophenoxy)phenyl)-1-methyl-6-oxo-1,4,5,6-tetrahydropyridazine-3-carboxamide] | – | –
5 | < 4.35 | < 4.35 | CN1N=C(C(=O)Nc2ncc(Oc3ccccc3Cl)s2)CCC1=O [Compound 416] | – | –
6 | 4.80 | 5.64 | Cn1nc(C(=O)Nc2ccc(Cc3cccc(F)c3)nn2)ccc1=O [Compound 195, N-(6-(3-fluorobenzyl)pyridazin-3-yl)-1-methyl-6-oxo-1,6-dihydropyridazine-3-carboxamide] | – | –
7 | < 4.35 | 4.75 | CC1(C)CN(C(=O)c2ccc(Cc3cccc(F)c3)cn2)CCO1 [Compound 339] | – | –
8 | 7.46 | 7.60 | O=C(Nc1ccc(Cc2ccc(F)c(F)c2)cn1)c1ccnnc1 [Compound 621] | – | –
9 | 5.56 | 6.47 | Cn1cc(C(=O)Nc2ccc(C3CC3c3ccccc3)cn2)ccc1=O (stereo not drawn) [Compound 298] | – | –
10 | 5.12 | 5.85 | Cn1cc(C(=O)Nc2ccc(Cc3cccc(Cl)c3)cn2)ncc1=O [Compound 108, N-(5-(3-chlorobenzyl)pyridin-2-yl)-4-methyl-5-oxo-4,5-dihydropyrazine-2-carboxamide] | – | –
11 | 4.37 | 7.19 | Cn1nc(C(=O)Nc2ccc(Cc3cc(F)c(F)c(C#N)c3)cn2)ccc1=O [Compound 558] | – | –
12 | < 4.35 | < 4.35 | Cc1ccnc(Cc2ccc(NC(=O)C3=NN(C)C(=O)CC3)nc2)c1 [Compound 469] | – | –
13 | 6.29 | 6.43 | O=C(Nc1ccc(Cc2cccc(F)c2)cn1)c1ccnnc1 [Compound 143, N-(5-(3-fluorobenzyl)pyridin-2-yl)pyridazine-4-carboxamide] | – | –
14 | 5.40 | 6.59 | Cn1nc(C(=O)Nc2ccc(COc3cccc(Cl)c3)cn2)ccc1=O [Compound 262] | – | –
15 | < 4.35 | < 4.35 | Cc1cncc(Cc2ccc(NC(=O)c3ccc(=O)n(C)c3)nc2)c1 [Compound 450] | – | –
16 | – | – | Cn1cc(C(=O)Nc2ncc(Cc3cccc(F)c3)s2)ccc1=O [Compound 224, N-(5-(3-fluorobenzyl)thiazol-2-yl)-1-methyl-6-oxo-1,6-dihydropyridine-3-carboxamide] | 6.51 | 6.66
17 | 5.96 | 6.17 | CC(O)c1ccc(C(=O)Nc2ccc(Cc3cccc(F)c3)cn2)cn1 (stereo not drawn) [Compound 529] | – | –
18 | < 4.35 | 7.52 | CN1N=C(C(=O)Oc2ccc(NCc3cc(F)cc(C#N)c3)nc2)CCC1=O [Compound 269] | – | –
19 | < 4.35 | 7.52 | N#Cc1ccc(C(=O)Nc2ccc(Cc3cccc(Cl)c3)cn2)cn1 [Compound 120, N-(5-(3-chlorobenzyl)pyridin-2-yl)-6-cyanonicotinamide] | – | –
20 | 7.14 | 8.00 | Cn1cc(C(=O)Nc2ccc(Cc3ccc(F)c(F)c3)cn2)n(C)c1=O [Compound 643] | – | –
21 | < 4.35 | 5.92 | Cn1nc(C(=O)Nc2ccc(COc3ccccc3)cn2)ccc1=O [Compound 584] | – | –
22 | 5.37 | 6.55 | CCn1cc(C(=O)Nc2ccc(Cc3ccc(F)c(F)c3)cn2)ccc1=O [Compound 582] | – | –

Row | pIC50 (human SCD1; [1]) | pIC50 (human SCD5; [2]) | Structure (SMILES) | pIC50 (human SCD1; SCD1 IC50) | pIC50 (human SCD5; SCD5 IC50)
23 | 8.00 | 8.00 | O=C(Nc1ccc(Cc2cccc(Cl)c2)cn1)c1ccc(CO)nc1 [Compound 131, N-(5-(3-chlorobenzyl)pyridin-2-yl)-6-(hydroxymethyl)nicotinamide] | – | –
24 | < 4.35 | 5.19 | CN1N=C(C(=O)Nc2ccc(Cc3cccc(C4CC4)c3)nn2)CCC1=O [Compound 187, N-(6-(3-cyclopropylbenzyl)pyridazin-3-yl)-1-methyl-6-oxo-1,4,5,6-tetrahydropyridazine-3-carboxamide] | – | –
25 | – | – | COc1cc(Cc2ccc(NC(=O)c3ccc(=O)n(C)c3)nc2)ccc1F [Compound 54, N-(5-(4-fluoro-3-methoxybenzyl)pyridin-2-yl)-1-methyl-6-oxo-1,6-dihydropyridine-3-carboxamide] | 4.92 | 6.24
26 | < 4.35 | < 4.35 | Cn1cc(C(=O)Nc2ccc(OCc3cc(F)cc(C#N)c3)cn2)ccc1=O [Compound 427] | – | –
27 | < 4.35 | < 4.35 | CN1N=C(C(=O)Nc2ccc(Cc3cccc(F)c3)nc2)CCC1=O [Compound 401] | – | –
28 | < 4.35 | 5.45 | Cn1nc(NC(=O)c2ccc(Cc3cccc(Cl)c3)nn2)ccc1=O [Compound 254] | – | –
29 | < 4.35 | 5.72 | O=C(Nc1ccc(Cc2cccc(Cl)c2)cn1)c1ccc(C2(O)CC2)nc1 [Compound 557] | – | –
30 | < 4.35 | < 4.35 | Cn1nc(C(=O)Nc2ccc(OCc3cc(F)cc(C#N)c3)cn2)ccc1=O [Compound 441] | – | –
31 | 6.41 | 6.42 | CN1N=C(C(=O)Nc2ncc(Cc3ccc(Cl)cc3)s2)CCC1=O [Compound 213, N-(5-(4-chlorobenzyl)thiazol-2-yl)-1-methyl-6-oxo-1,4,5,6-tetrahydropyridazine-3-carboxamide] | – | –
32 | 5.51 | 6.92 | CCn1cc(C(=O)Nc2ccc(Cc3cc(F)cc(C#N)c3)cn2)cn1 [Compound 594] | – | –
33 | < 4.35 | 7.21 | O=C(Nc1ccc(Cc2cc(F)cc(F)c2)cn1)c1cnc(Cl)cn1 [Compound 635] | – | –
34 | 5.68 | 7.72 | N#Cc1ccc(C(=O)Nc2ccc(Cc3cc(F)cc(F)c3)cn2)cn1 [Compound 478] | – | –
35 | < 4.35 | < 4.35 | CN1N=C(C(=O)Nc2ccc(Cc3cccc(C=O)c3)cn2)CCC1=O [Compound 440] | – | –
36 | 8.00 | 8.00 | C#CCn1nc(C(=O)Nc2ccc(Cc3cccc(Cl)c3)cn2)ccc1=O [Compound 501] | – | –
37 | 5.64 | 8.00 | O=C(Nc1ccc(Cc2cccc(Cl)c2)cn1)c1cc2ncncc2s1 [Compound 556] | – | –
38 | – | – | Cn1cc(C(=O)Nc2ccc(Cc3ccc(Cl)cc3)cn2)ccc1=O [Compound 64, N-(5-(4-chlorobenzyl)pyridin-2-yl)-1-methyl-6-oxo-1,6-dihydropyridine-3-carboxamide] | 6.25 | 7.22
39 | < 4.35 | 5.75 | CN1N=C(C(=O)Nc2ccc(Cc3ccc(Cl)s3)cn2)CCC1=O [Example 21, N-(5-((5-chlorothiophen-2-yl)methyl)pyridin-2-yl)-1-methyl-6-oxo-1,4,5,6-tetrahydropyridazine-3-carboxamide] | – | –
40 | < 4.35 | < 4.35 | Cc1cnc(Cc2ccc(NC(=O)C3=NN(C)C(=O)CC3)nc2)s1 [Compound 402] | – | –
41 | 6.96 | 6.74 | C=Cc1ncc(C(=O)Nc2ccc(Cc3cccc(Cl)c3)cn2)cc1F [Compound 333] | – | –
42 | < 4.35 | < 4.35 | C=CCCc1ccc(NC(=O)C2=NN(C)C(=O)CC2)nc1 [Compound 444] | – | –
43 | 5.73 | 7.70 | Cn1cc(NC(=O)c2ccc(Cc3ccc(F)c(F)c3)cn2)ccc1=O [Compound 313] | – | –
44 | < 4.35 | 4.74 | CN1N=C(C(=O)Nc2ccc(C=C3CCCCC3)cn2)CCC1=O [Compound 477] | – | –

Row | Structure (SMILES) | pIC50 (human SCD1; [1]) | pIC50 (human SCD5; [2]) | pIC50 (human SCD1; SCD1 IC50) | pIC50 (human SCD5; SCD5 IC50)
45 | CN1N=C(C(=O)Nc2ccc(Oc3ccccc3Cl)cn2)CCC1=O [Compound 156, N-(5-(2-chlorophenoxy)pyridin-2-yl)-1-methyl-6-oxo-1,4,5,6-tetrahydropyridazine-3-carboxamide] | < 4.35 | 4.55 | – | –
46 | CN1CC(C(=O)Nc2ncc(Cc3cccc(F)c3)s2)CCC1=O (stereo not drawn) [Compound 223, N-(5-(3-fluorobenzyl)thiazol-2-yl)-1-methyl-6-oxopiperidine-3-carboxamide] | < 4.35 | – | – | 4.95
47 | Cn1nc(C(=O)Nc2nc(Cl)c(Cc3cccc(F)c3)s2)ccc1=O [Compound 232, N-(4-chloro-5-(3-fluorobenzyl)thiazol-2-yl)-1-methyl-6-oxo-1,6-dihydropyridazine-3-carboxamide] | 6.85 | 7.15 | – | –
48 | Cn1cc(C(=O)Nc2ccc(Cc3cccc(F)c3)nn2)ccc1=O [Compound 176, N-(6-(3-fluorobenzyl)pyridazin-3-yl)-1-methyl-6-oxo-1,6-dihydropyridine-3-carboxamide] | < 4.35 | 5.58 | – | –
